Test results from ChEMBL document CHEMBL4350985, “1,3-Dioxane as a scaffold for potent and selective 5-HT1AR agonist with in-vivo anxiolytic, anti-depressant and anti-nociceptive activity” (Eur J Med Chem, 2019).
The source made the active and inactive calls. The rule behind the calls is not given here.

Tests used:
[1] = biological target: T1, 5-hydroxytryptamine receptor 1A (Homo sapiens, UniProt P08908); assay: Displacement of [3H]8-OH-DPAT from human cloned 5HT-1AR transfected in HeLa cells incubated for 30 mins by liquid scintillation counter; type: cell-based
T1 sequence (P08908 whole entry): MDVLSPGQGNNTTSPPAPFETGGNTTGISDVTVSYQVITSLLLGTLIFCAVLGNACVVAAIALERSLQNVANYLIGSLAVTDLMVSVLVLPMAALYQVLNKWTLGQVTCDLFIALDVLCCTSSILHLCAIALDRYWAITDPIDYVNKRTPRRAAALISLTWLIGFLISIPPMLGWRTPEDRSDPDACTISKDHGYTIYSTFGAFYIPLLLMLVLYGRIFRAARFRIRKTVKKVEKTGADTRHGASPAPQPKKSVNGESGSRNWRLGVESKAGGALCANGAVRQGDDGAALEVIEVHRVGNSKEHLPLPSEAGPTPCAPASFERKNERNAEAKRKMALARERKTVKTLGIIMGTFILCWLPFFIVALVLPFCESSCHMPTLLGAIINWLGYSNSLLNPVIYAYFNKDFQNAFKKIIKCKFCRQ

[2] = biological target: T2, Alpha-1A adrenergic receptor (Rattus norvegicus) (UniProt P43140); assay: Antagonist activity at alpha-1a adrenergic receptor in Wistar rat prostatic vas deferens assessed as inhibition of (-)-noradrenaline-induced contraction
T2 sequence (whole entry): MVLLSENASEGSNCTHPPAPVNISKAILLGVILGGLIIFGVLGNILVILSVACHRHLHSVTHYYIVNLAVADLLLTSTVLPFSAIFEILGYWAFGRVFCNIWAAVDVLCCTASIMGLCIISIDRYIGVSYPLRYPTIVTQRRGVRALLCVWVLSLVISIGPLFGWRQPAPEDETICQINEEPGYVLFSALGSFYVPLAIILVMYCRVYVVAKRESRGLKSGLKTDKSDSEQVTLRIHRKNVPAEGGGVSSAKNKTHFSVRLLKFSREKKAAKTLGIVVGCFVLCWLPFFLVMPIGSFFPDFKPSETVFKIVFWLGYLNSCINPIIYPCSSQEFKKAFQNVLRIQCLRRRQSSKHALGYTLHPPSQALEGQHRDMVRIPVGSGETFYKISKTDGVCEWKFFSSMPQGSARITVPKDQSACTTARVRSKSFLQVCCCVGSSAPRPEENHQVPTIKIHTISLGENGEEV

[3] = biological target: T3, Alpha-1B adrenergic receptor (Rattus norvegicus) (UniProt P15823); assay: Antagonist activity at alpha-1b adrenergic receptor in Wistar rat spleen assessed as inhibition of (-)-phenylephrine-induced contraction; type: tissue-based
T3 sequence (whole entry): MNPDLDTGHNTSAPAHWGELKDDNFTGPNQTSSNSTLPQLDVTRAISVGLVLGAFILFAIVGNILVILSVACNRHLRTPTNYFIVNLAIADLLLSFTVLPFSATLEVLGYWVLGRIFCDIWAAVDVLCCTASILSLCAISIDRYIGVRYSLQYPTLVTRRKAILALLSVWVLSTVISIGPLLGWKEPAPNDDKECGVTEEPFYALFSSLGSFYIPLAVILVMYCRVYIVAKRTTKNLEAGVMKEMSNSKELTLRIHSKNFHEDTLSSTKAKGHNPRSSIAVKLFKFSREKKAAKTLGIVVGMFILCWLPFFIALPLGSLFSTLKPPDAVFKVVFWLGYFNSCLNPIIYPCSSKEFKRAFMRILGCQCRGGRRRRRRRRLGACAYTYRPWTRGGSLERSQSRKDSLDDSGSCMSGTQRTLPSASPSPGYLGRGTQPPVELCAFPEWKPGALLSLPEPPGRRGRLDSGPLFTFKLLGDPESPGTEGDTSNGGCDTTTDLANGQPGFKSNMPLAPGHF

[4] = biological target: T4, Alpha-1B adrenergic receptor (Homo sapiens, UniProt P35368); assay: Displacement of [3H] prazosin from human cloned adrenoceptor alpha 1B expressed in CHO cell membrane incubated for 30 mins by liquid scintillation counter
T4 sequence (P35368 whole entry): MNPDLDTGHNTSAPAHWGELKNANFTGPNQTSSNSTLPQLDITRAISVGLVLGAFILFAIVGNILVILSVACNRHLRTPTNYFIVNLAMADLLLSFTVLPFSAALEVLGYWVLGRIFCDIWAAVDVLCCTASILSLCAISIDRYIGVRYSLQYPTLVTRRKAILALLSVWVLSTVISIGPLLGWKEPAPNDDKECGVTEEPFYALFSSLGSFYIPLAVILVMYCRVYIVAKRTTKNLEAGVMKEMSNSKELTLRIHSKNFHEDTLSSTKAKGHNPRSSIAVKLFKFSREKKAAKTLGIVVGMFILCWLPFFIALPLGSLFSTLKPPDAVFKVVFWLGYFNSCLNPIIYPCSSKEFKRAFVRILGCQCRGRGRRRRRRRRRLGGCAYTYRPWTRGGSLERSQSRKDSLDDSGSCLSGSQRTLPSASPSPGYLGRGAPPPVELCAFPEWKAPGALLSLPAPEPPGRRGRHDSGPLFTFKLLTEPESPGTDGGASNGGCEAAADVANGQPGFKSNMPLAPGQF

[5] = biological target: T5, Alpha-1A adrenergic receptor (Homo sapiens, UniProt P35348); assay: biochemical
T5 sequence (P35348 whole entry): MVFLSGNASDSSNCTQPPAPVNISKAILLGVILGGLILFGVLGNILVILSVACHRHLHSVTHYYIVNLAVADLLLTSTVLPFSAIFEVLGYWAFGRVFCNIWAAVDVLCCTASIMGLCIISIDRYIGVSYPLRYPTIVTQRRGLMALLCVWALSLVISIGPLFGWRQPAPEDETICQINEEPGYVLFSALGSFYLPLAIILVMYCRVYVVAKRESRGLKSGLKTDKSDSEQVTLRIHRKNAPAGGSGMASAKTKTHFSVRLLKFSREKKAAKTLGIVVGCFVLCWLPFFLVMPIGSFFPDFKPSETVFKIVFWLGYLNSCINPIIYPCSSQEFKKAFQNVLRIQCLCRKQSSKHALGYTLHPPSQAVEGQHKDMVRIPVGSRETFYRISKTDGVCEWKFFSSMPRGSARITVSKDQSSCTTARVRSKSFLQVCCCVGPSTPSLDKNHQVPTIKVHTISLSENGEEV
Description: Displacement of [3H] prazosin from human cloned adrenoceptor alpha 1A expressed in CHO cell membrane incubated for 30 mins by liquid scintillation counting

[6] = biological target: T6, Alpha-1D adrenergic receptor (Rattus norvegicus) (UniProt P23944); assay: Antagonist activity at alpha-1d adrenergic receptor in Wistar rat thoracic aorta assessed as inhibition of (-)-noradrenaline-induced contractions
T6 sequence (whole entry): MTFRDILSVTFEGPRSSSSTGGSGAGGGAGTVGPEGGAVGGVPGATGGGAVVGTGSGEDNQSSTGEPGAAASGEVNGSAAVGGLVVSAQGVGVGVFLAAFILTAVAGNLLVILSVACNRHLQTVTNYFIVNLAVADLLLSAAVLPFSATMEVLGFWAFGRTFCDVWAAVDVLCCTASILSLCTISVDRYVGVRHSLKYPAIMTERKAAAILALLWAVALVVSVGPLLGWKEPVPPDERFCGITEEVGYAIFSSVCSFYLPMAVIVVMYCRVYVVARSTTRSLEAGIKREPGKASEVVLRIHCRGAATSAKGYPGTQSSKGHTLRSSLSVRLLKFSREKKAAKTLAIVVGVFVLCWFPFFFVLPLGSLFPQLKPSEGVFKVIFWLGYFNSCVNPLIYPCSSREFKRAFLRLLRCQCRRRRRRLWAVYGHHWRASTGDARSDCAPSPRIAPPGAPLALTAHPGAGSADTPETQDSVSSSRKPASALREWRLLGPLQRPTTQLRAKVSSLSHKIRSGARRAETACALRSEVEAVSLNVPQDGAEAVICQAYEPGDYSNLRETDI

[7] = biological target: T7, Alpha-1D adrenergic receptor (Homo sapiens, UniProt P25100); assay: biochemical
T7 sequence (P25100 whole entry): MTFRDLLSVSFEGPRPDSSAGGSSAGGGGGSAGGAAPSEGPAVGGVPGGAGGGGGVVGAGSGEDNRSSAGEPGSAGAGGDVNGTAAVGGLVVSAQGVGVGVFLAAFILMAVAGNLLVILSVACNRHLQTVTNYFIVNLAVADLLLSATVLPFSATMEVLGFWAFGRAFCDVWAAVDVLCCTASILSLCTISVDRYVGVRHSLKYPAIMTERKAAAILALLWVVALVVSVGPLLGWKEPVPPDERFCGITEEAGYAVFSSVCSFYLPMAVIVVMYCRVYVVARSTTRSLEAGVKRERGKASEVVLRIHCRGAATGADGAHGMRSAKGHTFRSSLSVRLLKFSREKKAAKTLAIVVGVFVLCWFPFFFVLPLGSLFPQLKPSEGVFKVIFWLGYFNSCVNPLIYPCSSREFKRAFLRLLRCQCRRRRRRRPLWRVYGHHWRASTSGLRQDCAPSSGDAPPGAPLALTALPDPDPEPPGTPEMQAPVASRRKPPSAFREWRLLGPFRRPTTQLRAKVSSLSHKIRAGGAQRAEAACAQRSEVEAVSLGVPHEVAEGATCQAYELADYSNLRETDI
Description: Displacement of [3H] prazosin from human cloned adrenoceptor alpha 1D expressed in CHO cell membrane incubated for 30 mins by liquid scintillation counter

[8] = biological target: T8, 5-hydroxytryptamine receptor 1A (Homo sapiens) (UniProt P08908); details: HeLa
T8 sequence (whole entry): T1 sequence (P08908 whole entry)
Description: Agonist activity at human recombinant 5HT1A receptor expressed in human HeLa cells assessed as increase in [35S]GTPgammaS binding incubated for 20 mins by liquid scintillation counter

[9] = species on record: Rattus norvegicus; assay: Selectivity for antagonist activity at Wistar rat thoracic aorta alpha 1D adrenoceptor over antagonist activity at Wistar rat spleen alpha 1B adrenoceptor
[10] = species on record: Rattus norvegicus; assay: Selectivity for antagonist activity at Wistar rat thoracic aorta alpha 1D adrenoceptor over antagonist activity at Wistar rat prostate vas deferens alpha 1A adrenoceptor
[11] = tested on: Rattus norvegicus; assay: Anxiolytic activity at Sprague-Dawley rat assessed as increase in time spent in open arm at 0.5 mg/kg, ip by EPM test relative to control; type: functional
[12] = tested on: Rattus norvegicus; assay: Antidepressant activity in Sprague-Dawley rat assessed as time spent on climbing at 0.5 mg/kg, ip by forced swim test; type: functional, organism-based
[13] = Half life in Sprague-Dawley rat plasma at 10 mg/kg, po measured upto 480 mins by LC/MS-MS analysis; type: ADME, organism-based
[14] = tested on: Rattus norvegicus; assay: Antidepressant activity in Sprague-Dawley rat assessed as increase in time spent in swimming at 0.5 mg/kg, ip by forced swim test; type: functional, organism-based
[15] = tested on: Rattus norvegicus; assay: Effect on locomotory activity in Sprague-Dawley rat assessed as distance travelled at 0.5 mg/kg, ip by open field test; type: functional, organism-based
[16] = tested on: Rattus norvegicus; assay: Anxiolytic activity at Sprague-Dawley rat assessed as number of open arm entries at 0.5 mg/kg, ip by EPM test; type: functional, organism-based
[17] = tested on: Rattus norvegicus; assay: Antidepressant activity in Sprague-Dawley rat assessed as decrease in time of immobilization at 0.5 mg/kg, ip by forced swim test; type: functional, organism-based

| SMILES | Ki [1] [nM] | pKb [2] | pKb [3] | Ki [4] [nM] | Ki [5] [nM] | pKb [6] | Ki [7] [nM] | pD2 [8] | Ratio pKb [9] | Ratio pKb [10] | Activity [11] [%] | Activity [12] | half-life [13] [min] | Activity [14] | Activity [15] | Activity [16] | inhibition [17] |
| --- | --- | --- | --- | --- | --- | --- | --- | --- | --- | --- | --- | --- | --- | --- | --- | --- | --- |
| c1ccc(OCCNC[C@@H]2CO[C@H](C(c3ccccc3)c3ccccc3)O2)cc1 (relative stereo) | 11.5 | 6.22 | 6.83 | 102 | 427 | 6.72 | 29.5 | – | – | – | – | – | – | – | – | – | – |
| c1ccc(OCCNCC[C@@H]2CO[C@H](C(c3ccccc3)c3ccccc3)O2)cc1 (relative stereo) | 60.3 | 6.14 | 6.43 | 107 | 170 | 7.15 | 75.9 | – | – | – | – | – | – | – | – | – | – |
| c1ccc(OCCNCCC2COC(c3ccccc3)(c3ccccc3)O2)cc1 (stereo unspecified) | 724 | 6.34 | 6.49 | 95.5 | 58.9 | 7.04 | 30.2 | – | – | – | – | – | – | – | – | – | – |
| COc1ccccc1OCCNC[C@H]1CO[C@H](C(c2ccccc2)c2ccccc2)O1 (relative stereo) | 2 | 6.78 | 6.82 | 27.5 | 30.9 | 7.64 | 7.08 | – | – | – | – | – | – | – | – | – | – |
| COc1ccccc1OCCNC[C@@H]1CO[C@H](C(c2ccccc2)c2ccccc2)O1 (relative stereo) | 3.16 | 6.16 | 6.75 | 37.2 | 977 | 7.52 | 4.37 | – | – | – | – | – | – | – | – | – | – |
| c1ccc(OCCNCC[C@H]2CO[C@H](C(c3ccccc3)c3ccccc3)O2)cc1 (relative stereo) | 57.5 | 5.71 | 6.66 | 166 | 89.1 | 7.22 | 95.5 | – | – | – | – | – | – | – | – | – | – |
| c1ccc(OCCNCC2COC(c3ccccc3)(c3ccccc3)O2)cc1 (stereo unspecified) | – | 6.16 | 5.86 | – | – | 8.37 | – | 8.8 | > 100 | > 100 | – | – | – | – | – | – | – |
| COc1ccccc1OCCNCC1COC(c2ccccc2)(c2ccccc2)O1 (stereo unspecified) | – | 7.53 | 7.36 | – | – | 8.65 | – | 7.36 | – | – | – | – | – | – | – | – | – |
| Br.CCCN(CCC)C1CCc2cccc(O)c2C1 (stereo unspecified) | – | – | – | – | – | – | – | – | – | – | 19 | inactive | 27 | Active | inactive | inactive | Active |
| c1ccc(OCCNC[C@H]2CO[C@H](C(c3ccccc3)c3ccccc3)O2)cc1 (relative stereo) | 5.25 | 6.29 | 6.26 | 102 | 120 | 6.7 | 87.1 | – | – | – | – | – | – | – | – | – | – |
